According to patent US20120094998A1, “Oligomer-Protein Tyrosine Kinase Inhibitor Conjugates” (Nektar Therapeutics, priority 2009, published 2012):

Columns and labels:
ABL = ABL (Homo sapiens, UniProt P00519)
MAPKAPK2 = MAPKAPK2 (Homo sapiens, UniProt P49137); experiment: Activity against various protein tyrosine kinases: MAPKAPK2; type: biochemical; settings: for inhibition at 0.01 µM: 10 nM
Description: (§1) Using techniques know those of ordinary skill in the art, compounds were tested for activity against various protein tyrosine kinases.

LYN = LYN (Homo sapiens, UniProt P07948); experiment: Activity against various protein tyrosine kinases: LYN; type: biochemical; settings: for inhibition at 0.01 µM: 10 nM
Description: as §1

PKD2 = target: T1, PKD2 (Homo sapiens, UniProt Q9BZL6); experiment: Activity against various protein tyrosine kinases: PKD2; type: biochemical; settings: for inhibition at 0.01 µM: 10 nM
T1 sequence (Q9BZL6 1-878): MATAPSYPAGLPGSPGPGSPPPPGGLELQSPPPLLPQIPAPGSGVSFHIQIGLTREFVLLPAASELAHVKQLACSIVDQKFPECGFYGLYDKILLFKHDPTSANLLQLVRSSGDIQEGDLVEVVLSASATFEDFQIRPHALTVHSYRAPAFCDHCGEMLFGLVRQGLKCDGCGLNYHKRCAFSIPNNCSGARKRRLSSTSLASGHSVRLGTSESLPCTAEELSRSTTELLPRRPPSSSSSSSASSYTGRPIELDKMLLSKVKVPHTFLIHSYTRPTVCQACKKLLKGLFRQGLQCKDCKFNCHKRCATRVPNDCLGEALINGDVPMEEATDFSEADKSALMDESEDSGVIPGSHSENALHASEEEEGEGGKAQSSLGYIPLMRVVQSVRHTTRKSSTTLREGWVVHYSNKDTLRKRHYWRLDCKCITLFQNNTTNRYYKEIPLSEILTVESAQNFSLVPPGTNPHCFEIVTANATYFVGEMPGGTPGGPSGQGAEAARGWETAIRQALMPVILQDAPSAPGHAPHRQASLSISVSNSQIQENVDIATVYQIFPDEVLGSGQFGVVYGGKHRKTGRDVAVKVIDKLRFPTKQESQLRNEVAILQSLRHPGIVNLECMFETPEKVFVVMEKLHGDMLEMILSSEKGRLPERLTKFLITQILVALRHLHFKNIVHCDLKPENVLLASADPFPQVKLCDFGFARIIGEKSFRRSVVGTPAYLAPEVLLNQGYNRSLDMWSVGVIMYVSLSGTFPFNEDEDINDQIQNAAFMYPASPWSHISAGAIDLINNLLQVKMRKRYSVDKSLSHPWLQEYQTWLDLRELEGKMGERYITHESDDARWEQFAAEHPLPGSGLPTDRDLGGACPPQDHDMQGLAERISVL
Description: as §1

Sequence of MAPKAPK2 (P49137 whole entry, species assumed): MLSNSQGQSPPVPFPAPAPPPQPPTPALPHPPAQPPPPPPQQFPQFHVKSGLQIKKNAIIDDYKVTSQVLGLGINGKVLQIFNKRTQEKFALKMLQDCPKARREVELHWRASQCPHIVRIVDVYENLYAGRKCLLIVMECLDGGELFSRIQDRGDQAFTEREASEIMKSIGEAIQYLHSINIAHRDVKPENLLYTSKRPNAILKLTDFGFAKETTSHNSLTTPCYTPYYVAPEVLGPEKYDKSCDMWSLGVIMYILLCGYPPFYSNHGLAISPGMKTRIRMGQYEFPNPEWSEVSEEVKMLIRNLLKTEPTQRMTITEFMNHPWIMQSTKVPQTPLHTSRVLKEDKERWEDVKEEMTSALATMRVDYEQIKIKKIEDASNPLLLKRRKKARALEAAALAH
Sequence of ABL (P00519 whole entry): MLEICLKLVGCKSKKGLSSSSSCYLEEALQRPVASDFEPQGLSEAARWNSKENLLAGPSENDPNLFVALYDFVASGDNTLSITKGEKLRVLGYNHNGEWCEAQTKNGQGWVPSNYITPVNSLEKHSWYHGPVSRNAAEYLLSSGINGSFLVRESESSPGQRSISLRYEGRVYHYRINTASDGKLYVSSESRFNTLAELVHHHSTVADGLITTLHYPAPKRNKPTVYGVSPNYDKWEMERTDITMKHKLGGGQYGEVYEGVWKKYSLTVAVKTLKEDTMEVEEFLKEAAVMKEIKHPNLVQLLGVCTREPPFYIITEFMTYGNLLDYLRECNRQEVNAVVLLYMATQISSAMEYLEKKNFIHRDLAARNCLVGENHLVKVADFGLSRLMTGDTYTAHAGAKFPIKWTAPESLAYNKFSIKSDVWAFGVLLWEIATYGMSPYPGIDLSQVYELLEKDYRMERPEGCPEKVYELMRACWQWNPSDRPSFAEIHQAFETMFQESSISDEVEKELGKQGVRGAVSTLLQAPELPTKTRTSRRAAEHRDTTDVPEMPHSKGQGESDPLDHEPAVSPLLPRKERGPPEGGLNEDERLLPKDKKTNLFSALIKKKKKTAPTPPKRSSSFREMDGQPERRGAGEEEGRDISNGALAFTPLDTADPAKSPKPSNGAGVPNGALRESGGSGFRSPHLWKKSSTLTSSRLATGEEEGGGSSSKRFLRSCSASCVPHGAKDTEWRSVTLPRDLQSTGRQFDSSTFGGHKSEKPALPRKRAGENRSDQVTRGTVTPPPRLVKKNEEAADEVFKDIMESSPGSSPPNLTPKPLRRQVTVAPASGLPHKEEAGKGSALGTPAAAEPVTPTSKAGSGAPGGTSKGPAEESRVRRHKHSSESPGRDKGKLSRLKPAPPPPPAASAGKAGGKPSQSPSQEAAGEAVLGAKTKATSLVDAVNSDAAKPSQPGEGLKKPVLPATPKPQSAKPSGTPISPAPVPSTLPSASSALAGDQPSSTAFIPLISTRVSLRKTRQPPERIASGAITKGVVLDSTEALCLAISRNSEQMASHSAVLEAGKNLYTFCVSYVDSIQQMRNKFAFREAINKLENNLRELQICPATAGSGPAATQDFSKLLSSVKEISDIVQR
Sequence of LYN (P07948 whole entry, species assumed): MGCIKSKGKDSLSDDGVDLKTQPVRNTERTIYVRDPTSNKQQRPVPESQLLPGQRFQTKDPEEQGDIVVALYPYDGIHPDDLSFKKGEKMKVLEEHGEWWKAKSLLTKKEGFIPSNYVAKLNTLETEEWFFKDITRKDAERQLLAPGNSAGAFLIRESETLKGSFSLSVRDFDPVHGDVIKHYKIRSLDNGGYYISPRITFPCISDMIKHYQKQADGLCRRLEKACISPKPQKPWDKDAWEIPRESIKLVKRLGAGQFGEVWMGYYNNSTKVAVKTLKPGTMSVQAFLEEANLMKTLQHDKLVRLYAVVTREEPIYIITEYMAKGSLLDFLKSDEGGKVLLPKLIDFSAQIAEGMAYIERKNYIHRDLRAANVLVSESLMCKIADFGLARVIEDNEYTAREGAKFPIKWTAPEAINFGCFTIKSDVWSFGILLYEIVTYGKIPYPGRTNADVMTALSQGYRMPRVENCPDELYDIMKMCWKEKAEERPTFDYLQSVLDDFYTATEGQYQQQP

| SMILES | ABL AVG % Activity at 1.0E−09 (ABL) | ABL AVG % Activity at 1.0E−10 (ABL) | ABL AVG % Activity at 1.0E−11 (ABL) | ABL AVG % Activity at 3.0E−09 (ABL) | ABL AVG % Activity at 3.0E−10 (ABL) | ABL AVG % Activity at 3.0E−11 (ABL) | inhibition at 0.01 µM (MAPKAPK2) | inhibition at 1 µM (MAPKAPK2) | inhibition at 0.01 µM (LYN) | inhibition at 1 µM (LYN) | inhibition at 0.01 µM (PKD2) | inhibition at 1 µM (PKD2) |
| --- | --- | --- | --- | --- | --- | --- | --- | --- | --- | --- | --- | --- |
| COCCOCCOCCNC(=O)OCCN1CCN(c2cc(Nc3ncc(C(=O)Nc4c(C)cccc4Cl)s3)nc(C)n2)CC1 [mPEG3-NHCOO-Dasatinib] | 4% | 81% | 99% | 0% | 47% | 95% | 1% | -1% | 99% | 99% | 12% | -5% |
| COCCOCCOCCOCCOCCOCCOCCNC(=O)OCCN1CCN(c2cc(Nc3ncc(C(=O)Nc4c(C)cccc4Cl)s3)nc(C)n2)CC1 [mPEG7-NHCOO-Dasatinib] | – | – | – | – | – | – | 3% | 7% | 98% | 98% | 3% | 4% |
